Test results from paper PMC4408918 (Journal of medicinal chemistry, 2012).
Read-outs that look alike come from different tables or passages of the source.

How the values were obtained:
[1] = Liver microsomal stability, human; format: in vitro ADME; details: both, pH 7.4
[2] = system: P. falciparum K1; test: P. falciparum K1 growth inhibition; format: cell-based; details: Plasmodium falciparum, K1, 72 h, read-out: K1 EC50
[3] = In vivo pharmacokinetics, oral, female CD-1 mice; details: for AUC(0-inf) / CL/F: female, CD-1, mouse, po
[4] = system: P. falciparum 3D7; test: P. falciparum 3D7 growth inhibition; format: cell-based; details: Plasmodium falciparum, 3D7, 72 h, read-out: 3D7 EC50
[5] = system: P. berghei (NK-65); test: Oral efficacy in P. berghei; details: 100 and 200 mg/kg oral on days 3, 4, 5
[6] = system: Kir6.2/SUR2A; details: read-out: Kir6.2 IC50; cited from earlier work
[7] = Liver microsomal stability, mouse; format: in vitro ADME; details: female, CD9, mouse, mouse liver microsomes, pH 7.4
[8] = Parallel Artificial membrane Permeability Assay; format: in vitro ADME; details: triplicate
[9] = biological target: CYP2D6 (Homo sapiens, UniProt P10635); test: CYP inhibition in human liver microsomes, CYP2D6; format: in vitro ADME; details: 20 minutes at 37 °C, two concentrations
Sequence of CYP2D6 (P10635 whole entry): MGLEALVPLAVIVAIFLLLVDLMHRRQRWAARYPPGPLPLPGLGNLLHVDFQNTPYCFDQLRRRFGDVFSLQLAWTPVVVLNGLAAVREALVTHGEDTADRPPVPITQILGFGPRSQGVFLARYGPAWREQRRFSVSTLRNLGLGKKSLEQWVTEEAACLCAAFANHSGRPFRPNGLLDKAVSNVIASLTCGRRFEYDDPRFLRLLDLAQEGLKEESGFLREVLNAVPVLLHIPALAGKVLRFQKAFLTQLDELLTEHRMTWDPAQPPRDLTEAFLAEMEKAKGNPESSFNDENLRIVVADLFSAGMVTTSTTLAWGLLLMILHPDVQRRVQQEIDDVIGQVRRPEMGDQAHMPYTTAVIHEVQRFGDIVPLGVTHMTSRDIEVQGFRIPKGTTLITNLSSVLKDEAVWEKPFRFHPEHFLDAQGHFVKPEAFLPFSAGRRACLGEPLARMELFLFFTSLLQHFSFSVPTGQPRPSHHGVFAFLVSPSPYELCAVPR

[10] = system: Nav1.5; details: cited from earlier work
[11] = human liver microsomes (pooled)

| CLint scaled at 2000 µM [1, 11] [mL/min/kg] | AUC(0-inf) ([3]; plasma, 20 mg/kg) [µM·h] | CL/F ([3]; plasma, 20 mg/kg) [mL/min/kg] | AUC(0-inf) ([3]; plasma, 200 mg/kg) [µM·h] | CL/F ([3]; plasma, 200 mg/kg) [mL/min/kg] | AUC(0-inf) ([3]; plasma, 500 mg/kg) [µM·h] | CL/F ([3]; plasma, 500 mg/kg) [mL/min/kg] | Avg. Pe (PAMPA permeability) [8] | Compound | overall in vivo efficacy [5] | IC50 [6] [µM] | CLint scaled at 2000 µM [7] [mL/min/kg] | AUC(0-inf) ([3]; in vivo, 200 mg/kg) [µM·h] | CL/F ([3]; in vivo, 200 mg/kg) [mL/min/kg] | CYP2D6 inhibition [9] | other results |
| --- | --- | --- | --- | --- | --- | --- | --- | --- | --- | --- | --- | --- | --- | --- | --- |
| 14 ± 1 | 0.249 | 2350 | 3.1 | 1890 | 3.37 | 4340 |  | O=C(CCc1ccccc1)c1ccccc1OCC(O)CN1CCN(C(c2ccccc2)c2ccccc2)CC1 (stereo not shown) [Compound 1] | not significantly better than that of the negative controls |  |  |  |  |  | EC50 [2]: 0.1 ± 0.05 µM; EC50 [4]: 0.06 ± 0.01 µM |
|  |  |  | 6.17 | 920 |  |  |  | O=C(CCc1ccccc1)c1cc(F)ccc1OCC(O)CN1CCN(C(c2ccccc2)c2ccccc2)CC1 (stereo not shown) [Compound 2] |  | > 5 |  |  |  |  | CLint scaled at 2000 µM ([1]; microsomes): 5 ± 2 mL/min/kg |
| 13 ± 1 | 0.298 | 1900 | 5.67 | 1000 | 4.08 | 3480 | und^a | O=C(CCc1ccc(F)cc1)c1ccccc1OCC(O)CN1CCN(C(c2ccccc2)c2ccccc2)CC1 (stereo not shown) [Compound 3] |  |  | 43 ± 3 |  |  |  |  |
| 19 ± 1 | 1.6 | 421 | 3.75 | 1790 |  |  | und^a | O=C(CCc1ccccc1)c1cc(F)ccc1OCC(O)CN1CCC(c2ccccc2)CC1 (stereo not shown) [Compound 5] |  |  | 29 ± 2 |  |  | weak CYP2D6 inhibitors | increase in Cmax with increasing dose from 20 mg/kg to 200 mg/kg ([3]; oral, female CD-1 mice): 2 fold |

| Compound | CLint scaled at 2000 µM [1, 11] [mL/min/kg] | AUC(0-inf) ([3]; plasma, 20 mg/kg) [µM·h] | CL/F ([3]; plasma, 20 mg/kg) [mL/min/kg] | AUC(0-inf) ([3]; plasma, 200 mg/kg) [µM·h] | CL/F ([3]; plasma, 200 mg/kg) [mL/min/kg] | AUC(0-inf) ([3]; plasma, 500 mg/kg) [µM·h] | CL/F ([3]; plasma, 500 mg/kg) [mL/min/kg] | Avg. Pe (PAMPA permeability) [8] | overall in vivo efficacy [5] | IC50 [6] [µM] | CLint scaled at 2000 µM [7] [mL/min/kg] | AUC(0-inf) ([3]; in vivo, 200 mg/kg) [µM·h] | CL/F ([3]; in vivo, 200 mg/kg) [mL/min/kg] | CYP2D6 inhibition [9] | other results |
| --- | --- | --- | --- | --- | --- | --- | --- | --- | --- | --- | --- | --- | --- | --- | --- |
| O=C(CCc1ccccc1)c1ccccc1OCC(O)CN1CCC(c2ccccc2)CC1 (stereo not shown) [Compound 4] | 11 ± 1 |  |  |  |  |  |  |  | some efficacy in suppressing parasitemia and life extension, but did not provide durable cures | > 5 | 27 ± 2 | 6.8 | 1020 | weak CYP2D6 inhibitors | improvement in AUCinf over compound 1 ([3]; 500 mg/kg oral, female CD-1 mice): approximately 5 fold; AUC(0-inf) ([3]; in vivo, 20 mg/kg): 0.224 µM·h; CL/F ([3]; in vivo, 20 mg/kg): 3110 mL/min/kg; AUC(0-inf) ([3]; in vivo, 500 mg/kg): 15.3 µM·h; CL/F ([3]; in vivo, 500 mg/kg): 1140 mL/min/kg; IC50 ([10]; read-out: Nav1.5 phasic IC50, phasic): > 5 µM; IC50 ([10]; read-out: Nav1.5 tonic IC50, tonic): > 5 µM |
| Cc1ccc(N2CCN(CC(O)COc3ccccc3C(=O)CCc3ccccc3)CC2)cc1 (stereo not shown) [Compound 6] |  |  |  |  |  |  |  | und^a |  | > 5 | 30 ± 6 | 6.49 | 1000 |  | IC50 [10]: > 5 µM |
